The nature of the experiment: Patient on atorvastatin with orlistat added (co-therapy). The experiment is classed as in vivo, human. The method, then: A patient on atorvastatin 80 mg once daily is found to still be in need of reducing weight, triglyceride, and cholesterol levels further. […] The patient is maintained on this regimen for 2 months and thereafter the atorvastatin dosage is reduced to 60 mg once daily at which the reductions previously obtained are maintained. The patient is then switched to a fixed combination dosage form of 120 mg orlistat and 60 mg atorvastatin once daily. A patient on atorvastatin 10 mg once daily is found to be in need of weight reduction and triglyceride reduction, although cholesterol levels are adequately maintained by the atorvastatin. Orlistat 120 mg once daily is added to the regimen and each of weight, triglycerides and cholesterol drop. […] The patient is then changed to a fixed combination of 120 mg orlistat and 5 mg of atorvastatin.

Here are results for one molecule from US20100239669A1, “Combinations of statins and anti-obesity agent” (Scidose LLC, priority 2007, published 2010).

Turning to `CCCCCCCCCCC[C@@H](C[C@@H]1OC(=O)[C@H]1CCCCCC)OC(=O)[C@H](CC(C)C)NC=O` [orlistat, N-formyl-L-leucine ester of (3S,4S)-3-hexyl-4-[(2S)-2-hydroxytridecyl]-2-oxetanone], under “Example 1: 120 mg once daily orlistat added to atorvastatin 80 mg once daily”, the “weight, serum triglycerides, and cholesterol” value is recorded as “begins to lower”. Moreover, for the setting “Example 1: after 2 months atorvastatin reduced to 60 mg once daily, orlistat 120 mg once daily”, the “reductions previously obtained (weight, triglycerides, cholesterol)” value is “maintained”. For the same molecule, the “lowered weight, triglycerides, and cholesterol levels” value (Example 2: after 6 weeks, 120 mg orlistat once daily and 5 mg atorvastatin once daily) was “surprisingly maintains”. Further, for the setting “Example 2: orlistat 120 mg once daily added to atorvastatin 10 mg once daily”, the “weight, triglycerides and cholesterol” value is reported as “drop”.
